On to `CCC[C@H](CC(=O)NO)C(=O)N[C@H](C(=O)NC)C(C)(C)C`, for which the melting point (usually the temperature of the solid-liquid transition) is 200 °C. The result for `CCCC[C@H](CC(=O)NO)C(=O)N[C@H](C(=O)N(C)C)C(C)(C)C` reads 165 to 166 °C.

The record behind these values is US6441042B1 (dated 2002).
